Positions count from the first letter of the chain named.
How the values were obtained:
Test in all cases: Ba/F3 cell growth inhibition (CellTiter-Glo, 72 hours)
Type in all cases: cell-based
Ba/F3 parental = settings: Mus musculus, BaF3, Ba/F3 parental cells, read-out: Ba/F3 GI50s (μM) parental
Experimental: (§1) Seeding 3000 cells per well in a 96-well plate. After cell stabilization, treat the cells with compounds diluted in […] at a ⅓ serial dilution and culture for 72 hours. Following treatment with CellTiter-Glo, luminescence is produced only in the presence of ATP, as luciferase degrades luciferin. Luminescence values were measured using Envision (PerkinElmer). Based on the measured luminescence values, the concentration of compounds causing cell death was calculated to determine the GI50 value.
(§2) The activity values were categorized into three levels. • A: IC50<1 μM • B: 1 μM≤IC50<10 μM, • C: IC50≥10 μM

Ba/F3 FLT3 (ITD/D835Y) = molecular target: T1, Ba/F3 FLT3 (ITD/D835Y) (Homo sapiens, UniProt P36888, D835Y, cells depend on it, form not given); settings: read-out: Ba/F3 GI50s (μM) FLT3 (ITD/D835Y)
T1 sequence (P36888 1-993 D835Y): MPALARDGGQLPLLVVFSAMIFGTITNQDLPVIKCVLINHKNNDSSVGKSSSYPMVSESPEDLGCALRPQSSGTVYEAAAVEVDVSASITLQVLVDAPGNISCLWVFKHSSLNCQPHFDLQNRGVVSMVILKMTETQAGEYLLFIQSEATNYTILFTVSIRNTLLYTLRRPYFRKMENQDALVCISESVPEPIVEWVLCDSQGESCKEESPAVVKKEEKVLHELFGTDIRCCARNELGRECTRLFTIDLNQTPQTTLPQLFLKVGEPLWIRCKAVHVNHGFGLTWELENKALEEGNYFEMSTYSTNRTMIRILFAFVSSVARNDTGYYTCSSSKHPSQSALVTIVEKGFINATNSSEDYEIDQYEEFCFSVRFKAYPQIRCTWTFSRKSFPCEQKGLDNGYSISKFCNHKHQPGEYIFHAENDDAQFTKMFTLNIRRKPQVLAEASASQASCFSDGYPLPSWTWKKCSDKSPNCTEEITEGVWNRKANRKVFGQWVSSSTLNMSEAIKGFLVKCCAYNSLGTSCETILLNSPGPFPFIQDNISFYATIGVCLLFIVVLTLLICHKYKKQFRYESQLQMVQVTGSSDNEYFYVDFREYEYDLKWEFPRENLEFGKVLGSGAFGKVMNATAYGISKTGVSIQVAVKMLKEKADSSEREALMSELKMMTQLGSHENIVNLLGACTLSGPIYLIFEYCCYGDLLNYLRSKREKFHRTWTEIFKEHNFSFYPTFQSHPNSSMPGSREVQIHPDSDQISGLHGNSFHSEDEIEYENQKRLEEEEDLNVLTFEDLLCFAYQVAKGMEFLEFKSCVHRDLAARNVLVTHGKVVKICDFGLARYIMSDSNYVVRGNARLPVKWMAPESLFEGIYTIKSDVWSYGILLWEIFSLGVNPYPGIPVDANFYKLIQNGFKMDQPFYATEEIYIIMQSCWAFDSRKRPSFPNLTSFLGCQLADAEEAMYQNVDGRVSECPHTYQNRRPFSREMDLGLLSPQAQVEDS
Experimental: as §1, §2

Ba/F3 FLT3 (ITD) = molecular target: T2, Ba/F3 FLT3 (ITD) (Homo sapiens, UniProt P36888, cells depend on it, form not given); settings: read-out: Ba/F3 GI50s (μM) FLT3 (ITD)
T2 sequence (P36888 1-993): T1 sequence (P36888 1-993 D835Y) with Y835D
Experimental: as §1, §2

Compound | IC50 (Ba/F3 parental) [µM] | GI50 (Ba/F3 FLT3 (ITD/D835Y)) [µM] | GI50 (Ba/F3 FLT3 (ITD)) [µM]
O=C1CCCCOc2ccc(cc2)-c2ccc3cnc(nn23)Nc2cnn(c2)CCCN1 [Example 36, (2^1Z,4^4E)-4^1H-14-oxa-3,8-diaza-2(7,2)-pyrrolo[2,1-f][1,2,4]triazina-4(4,1)-pyrazola-1(1,4)-benzenacyclotetradecaphan-9-one] | 1 to 10 | < 1 | < 1
O=C1CCCCCCOc2ccc(cc2F)-c2ccc3cnc(nn23)Nc2ccc(cc2)OCCCN1 [Example 20, (Z)-13-fluoro-5,17-dioxa-3,9-diaza-2(7,2)-pyrrolo[2,1-f][1,2,4]triazina-1,4(1,4)-dibenzenacycloheptadecaphan-10-one] | ≥ 10 | 1 to 10 | 1 to 10
CS(=O)(=O)Nc1cccc(-c2ccc3cnc(Nc4ccc(N5CCN(CCCOc6cccc7c6C(=O)N(C6CCC(=O)NC6=O)C7=O)CC5)cc4)nn23)c1 (stereo not drawn) [Example 40] | 1 to 10 | < 1 | < 1
O=C1CCCCCCOc2ccc(cc2)-c2ccc3cnc(nn23)Nc2ccc(cc2)N2CCN1CC2 [Example 24, (Z)-13-oxa-3-aza-2(7,2)-pyrrolo[2,1-f][1,2,4]triazina-5(1,4)-piperazina-1,4(1,4)-dibenzenacyclotridecaphan-6-one] | 1 to 10 | 1 to 10 | 1 to 10
Cc1ncsc1-c1ccc(CNC(=O)[C@@H]2C[C@@H](O)CN2C(=O)[C@@H](NC(=O)CCOCCOCCN2CCN(c3ccc(Nc4ncc5ccc(-c6cccc(NS(C)(=O)=O)c6)n5n4)cc3)CC2)C(C)(C)C)cc1 [Example 84, (2S,4R)-1-((S)-3,3-dimethyl-2-(3-(2-(2-(4-(4-((7-(3-(methanesulfonamido)phenyl)pyrrolo[2,1-f][1,2,4]triazin-2-yl)amino)phenyl)piperazin-1-yl)ethoxy)ethoxy)propanamido)butanoyl)-4-hydroxy-N-(4-(4-methylthiazol-5-yl)benzyl)pyrrolidin-2-carboxamide] | 1 to 10 | < 1 | 1 to 10
CS(=O)(=O)Nc1cccc(-c2ccc3cnc(Nc4ccc(N5CCN(CCCCCCCCCCCOc6cccc7c6C(=O)N(C6CCC(=O)NC6=O)C7=O)CC5)cc4)nn23)c1 (stereo not drawn) [Example 42] | 1 to 10 | 1 to 10 | < 1
O=C1CCCCCCn2cc(cn2)-c2ccc3cnc(nn23)Nc2ccc(cc2)OCCCN1 [Example 17, (1^4Z,2^1Z)-1′H-5-oxa-3,9-diaza-2(7,2)-pyrrolo[2,1-f][1,2,4]triazina-1(4,1)-pyrazola-4(1,4)-benzenacyclohexadecaphan-10-one] | ≥ 10 | 1 to 10 | 1 to 10
CC(=O)N1CCCn2cc(cn2)Nc2ncc3ccc(n3n2)-c2ccc(cc2)OCC1 [Example 3, 1-((2^1Z,4^4E)-4^1H-11-oxa-3,8-diaza-2(7,2)-pyrrolo[2,1-f1][1,2,4]triazina-4(4,1)-pyrazola-1(1,4)-benzenacycloundecaphane-8-yl)ethan-1-one] | 1 to 10 | < 1 | < 1
COc1cc2ccc1Nc1ncc3ccc(n3n1)-c1ccc(cc1)OCCOCC(=O)NCCCO2 [Example 34, (Z)-42-methoxy-5,12,15-trioxa-3,9-diaza-2(7,2)-pyrrolo[2,1-f][1,2,4]triazina-1,4(1,4)-dibenzenacyclopentadecaphan-10-one] | ≥ 10 | 1 to 10 | 1 to 10
Cc1ncsc1-c1ccc(CNC(=O)[C@@H]2C[C@@H](O)CN2C(=O)[C@@H](NC(=O)COCCN2CCN(c3ccc(Nc4ncc5ccc(-c6cccc(NS(C)(=O)=O)c6)n5n4)cc3)CC2)C(C)(C)C)cc1 [Example 83, (2S,4R)-1-((S)-3,3-dimethyl-2-(2-(2-(4-(4-((7-(3-(methanesulfonamido)phenyl)pyrrolo[2,1-f][1,2,4]triazin-2-yl)amino)phenyl)piperazin-1-yl)ethoxy)acetaamino)butanoyl)-4-hydroxy-N-(4-(4-methylthiazol-5-yl)benzyl)pyrrolidin-2-carboxamide] | 1 to 10 | < 1 | < 1
CS(=O)(=O)Nc1cccc(-c2ccc3cnc(Nc4ccc(N5CCN(CCCCCCCOc6cccc7c6C(=O)N(C6CCC(=O)NC6=O)C7=O)CC5)cc4)nn23)c1 (stereo not drawn) [Example 41] | 1 to 10 | 1 to 10 | < 1
CS(=O)(=O)Nc1cccc(-c2ccc3cnc(Nc4ccc(N5CCN(CCCCCOc6cccc7c6C(=O)N(C6CCC(=O)NC6=O)C7=O)CC5)cc4)nn23)c1 (stereo not drawn) [Example 39] | ≥ 10 | ≥ 10 | ≥ 10
COc1cccc(NC(=O)N2CCCn3cc(cn3)Nc3ncc4ccc(n4n3)-c3ccc(cc3)OCC2)c1 [Example 7, (2^1Z,4^4E)-N-(3-methoxyphenyl)-4^1H-11-oxa-3,8-diaza-2(7,2)-pyrrolo[2,1-f][1,2,4]triazina-4(4,1)-pyrazola-1(1,4)-benzenecycloundecaphane-8-carboxamide] | ≥ 10 | < 1 | < 1
O=C1COCCOc2ccc(cc2)-c2ccc3cnc(nn23)Nc2cnn(c2)CCCN1 [Example 35, (2^1Z,4^4E)-4^1H-11,14-dioxa-3,8-diaza-2(7,2)-pyrrolo[2,1-f1][1,2,4]triazina-4(4,1)-pyrazola-1(1,4)-benzenacyclotetradecaphan-9-one] | 1 to 10 | < 1 | < 1
O=C1CCCCOc2ccc(cc2)-c2ccc3cnc(nn23)Nc2cnn(c2)C2CCN(CCCN1)CC2 [Example 26, (2^1Z,4^4E)-4^1H-15-oxa-3,9-diaza-2(7,2)-pyrrolo[2,1-f1][1,2,4]triazina-5(4,1)-piperidina-4(4,1)-pyrazola-1(1,4)-benzenacyclopentadecaphan-10-one] | ≥ 10 | < 1 | < 1
O=C1CCCCCCOc2ccc(cc2)-c2ccc3cnc(nn23)Nc2ccc(cc2)OCCCN1 [Example 29, (Z)-5,17-dioxa-3,9-diaza-2(7,2)-pyrrolo[2,1-f][1,2,4]triazina-1,4(1,4)-dibenzenacycloheptadecaphan-10-one] | ≥ 10 | 1 to 10 | < 1
O=C1CCCCOc2ccc(cc2)-c2ccc3cnc(nn23)Nc2cnn(c2)C2CCN1CC2 [Example 25, (2^1Z,4^4E)-4^1H-11-oxa-3-aza-2(7,2)-pyrrolo[2,1-f][1,2,4]triazina-5(4,1)-piperidina-4(4,1)-pyrazola-1(1,4)-benzenacycloundecaphan-6-one] | ≥ 10 | < 1 | < 1

Source: US20250136614A1, “2,7-SUBSTITUTED PYRROLO[2,1-F][1,2,4]TRIAZINE COMPOUND HAVING PROTEIN KINASE INHIBITORY ACTIVITY” (Magicbullettherapeutics Co., Ltd., priority 2021, published 2025)
